According to PubChem BioAssay (NCI):
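Grown in 96-well plates, cells were treated for 48 hours with each compound at five concentrations. Insufficient inhibition: endpoint recorded as highest concentration tested. GI50 = concentration required for 50% inhibition of growth. The concentration for full growth arrest is given as TGI.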

How the values were obtained:
Test in all cases: growth of human tumour cells (NCI), 48 h
BT-549 breast = tested on: BT-549 breast
COLO 205 colon = tested on: COLO 205 colon
HCT-116 colon = tested on: HCT-116 colon
KM12 colon = tested on: KM12 colon
MOLT-4 leukemia = tested on: MOLT-4 leukemia
SF-295 CNS = tested on: SF-295 CNS
SK-MEL-28 melanoma = tested on: SK-MEL-28 melanoma
TK-10 renal = tested on: TK-10 renal

Structure (SMILES) | TGI (BT-549 breast) | TGI (COLO 205 colon) | TGI (HCT-116 colon) | TGI (KM12 colon) | TGI (MOLT-4 leukemia) | TGI (SF-295 CNS) | TGI (SK-MEL-28 melanoma) | TGI (TK-10 renal) | GI50 (BT-549 breast) | GI50 (COLO 205 colon) | GI50 (HCT-116 colon) | GI50 (KM12 colon) | GI50 (MOLT-4 leukemia) | GI50 (SF-295 CNS) | GI50 (SK-MEL-28 melanoma) | GI50 (TK-10 renal)
NS(=O)(=O)c1ccc(NCc2cnc3ccccc3n2)cc1 | > 100 µM | > 100 µM | > 100 µM | > 100 µM | > 100 µM | > 100 µM | > 100 µM | > 100 µM | – | – | – | – | – | – | – | –
COC(=O)c1ccc2c(c1)C(=O)c1c-2n(C)c(=O)c2cc(OC)c(OC)cc12 | > 50 µM | > 50 µM | > 50 µM | > 50 µM | > 50 µM | > 50 µM | > 50 µM | > 50 µM | > 50 µM | > 50 µM | 40.1 µM | > 50 µM | > 50 µM | 34 µM | > 50 µM | 32.1 µM
CCCCCCCCCCCCCCCC(=O)N[C@H](/C=C/[C@H](O)CCCCCCCCCCCCC)CO | > 100 µM | > 100 µM | > 100 µM | > 100 µM | > 100 µM | > 100 µM | > 100 µM | > 100 µM | > 100 µM | > 100 µM | > 100 µM | > 100 µM | > 100 µM | > 100 µM | > 100 µM | > 100 µM
O=c1c2c(c3ccccc3n1-c1ccccc1)NC(=S)NC2c1ccc(Cl)cc1 (stereo not drawn) | 26 µM | 29.1 µM | 7.32 µM | 11.7 µM | > 100 µM | 7.16 µM | 32.5 µM | > 100 µM | 3.73 µM | 8.09 µM | 1.96 µM | 1.88 µM | 4.17 µM | 1.34 µM | 5.73 µM | 9.62 µM
NC1CCC(Nc2nc(NCc3cc(Cl)ccc3O)c3ncn(C4CCCC4)c3n2)CC1 (stereo not drawn) | 0.877 µM | 0.238 µM | 0.66 µM | 1.02 µM | 0.492 µM | 0.542 µM | 0.34 µM | 0.979 µM | 0.262 µM | 0.0965 µM | 0.0644 µM | 0.132 µM | 0.133 µM | 0.159 µM | 0.153 µM | 0.332 µM
C[C@]12CC[C@H]3[C@@H](CCC4=CC(=O)CC[C@@]43C)[C@@H]1CC[C@@H]2C(=O)COS(=O)(=O)c1ccc(Br)cc1 | 50.5 µM | 53.1 µM | 22.7 µM | 44.8 µM | – | 47.3 µM | 43.5 µM | 34.5 µM | – | – | – | – | – | – | – | –
Nc1ccccc1NC(=O)c1ccc(CN2CCC/C(=C\c3ccccn3)C2=O)cc1 | > 100 µM | 3.9 µM | > 100 µM | > 100 µM | > 100 µM | 11.7 µM | – | 4.18 µM | 3.2 µM | 1.15 µM | 0.381 µM | 1.53 µM | 1.26 µM | 1.92 µM | – | 0.107 µM
CNc1cc2nc3cc(NC)c(C)cc3cc2cc1C | 14.3 µM | 2.35 µM | 1.49 µM | 2.28 µM | > 100 µM | 13.2 µM | 20.5 µM | 16.2 µM | 3.48 µM | 0.64 µM | 0.365 µM | 0.792 µM | 0.514 µM | 1.41 µM | 5.91 µM | 3.55 µM
CCN(CC)CCOc1ccc(/C=C2\C[C@H]3[C@H]4CC=C5C[C@@H](O)CC[C@]5(C)[C@H]4CC[C@]3(C)[C@H]2O)cc1OC | – | > 50 µM | > 50 µM | 17 µM | > 50 µM | 25.4 µM | > 50 µM | 11.5 µM | – | 12.8 µM | 14.6 µM | 8.1 µM | 10.5 µM | 10.4 µM | 7.74 µM | 5.49 µM
CCOc1ccc2c(C)cc(=O)oc2c1 | > 100 µM | > 100 µM | > 100 µM | > 100 µM | > 100 µM | > 100 µM | > 100 µM | – | – | – | – | – | – | – | – | –
Cn1cc(-c2csc(-c3cn(CCCCN4CCCCC4)c4ccc(F)cc34)n2)c2cccnc21 | 3.13 µM | – | – | – | – | 3.05 µM | – | 2.92 µM | 1.67 µM | – | – | – | – | 1.63 µM | – | 1.58 µM
O=C(NNc1ccc(F)cc1)C1CCC(CNS(=O)(=O)c2ccc(Cl)c(Cl)c2)CC1 (stereo not drawn) | > 50 µM | > 50 µM | 33.9 µM | 42.6 µM | – | 45.5 µM | > 50 µM | 16.4 µM | 19.1 µM | 14.4 µM | 6.51 µM | 1.38 µM | – | 2.16 µM | > 50 µM | 1.74 µM
NCCCCCCCCCCCn1c2c(c3ccccc3c1=O)C(=O)c1ccccc1-2 | 41.4 µM | 5.45 µM | – | 37.8 µM | 3.93 µM | 7.9 µM | 4.82 µM | 8.97 µM | 20.3 µM | 2.24 µM | – | 3.95 µM | 1.97 µM | 2.7 µM | 2.27 µM | 3.14 µM
CC1SC2(CCC(c3ccccc3)CC2)N(NC(=O)c2[nH]c3ccc(F)cc3c2-c2ccccc2)C1=O (stereo not drawn) | 34.6 µM | 10.5 µM | 4.56 µM | 6.91 µM | – | 69 µM | 18.1 µM | > 100 µM | 5.45 µM | 2.96 µM | 1.94 µM | 2.32 µM | – | 12.1 µM | 5.34 µM | 7.57 µM
O=C(O)C1C2C=CC(C2)C1C(=O)O (stereo not drawn) | > 100 µM | > 100 µM | > 100 µM | > 100 µM | > 100 µM | > 100 µM | > 100 µM | – | > 100 µM | > 100 µM | > 100 µM | > 100 µM | > 100 µM | > 100 µM | > 100 µM | –
CSCC[C@H](NC(=O)[C@H](CC(C)C)NC(=O)[C@@H](Cc1ccccc1)NC(=O)CNC(=O)[C@@H](NC(=O)[C@H](C)NC(=O)[C@H](Cc1c[nH]c2ccccc12)NC(=O)[C@H](CCC(N)=O)NC(=O)[C@H](N)CC(N)=O)C(C)C)C(N)=O | – | > 12.5 µM | > 12.5 µM | > 12.5 µM | > 12.5 µM | > 12.5 µM | > 12.5 µM | > 12.5 µM | – | – | – | – | – | – | – | –
CCCCCc1cc[n+](CC(=O)c2ccc([N+](=O)[O-])cc2)cc1 | 20.5 µM | 2.97 µM | 11.4 µM | 14.1 µM | – | 24.3 µM | > 100 µM | 33.7 µM | 4.15 µM | 1.62 µM | 3.14 µM | 3.69 µM | – | 6.52 µM | 28.9 µM | 9.65 µM
